Test results as given in ChEMBL document CHEMBL1201862, “PubChem BioAssay data set” (2004).
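Values below derive from 48-hour exposures of cells grown in 96-well plates, with endpoints linearly interpolated between the two concentrations bracketing the appropriate inhibition level. At the GI50, growth is halved.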 The source made the active and inactive calls. Cut-off read from the data, not from the text of the source: active = GI50 up to about 1.1 µM and inactive = higher.

Experiments:
Experiment in all cases: growth of human tumour cells (NCI), 48 h
786-0 = tested on: 786-0
A498 = tested on: A498
A549 = tested on: A549
ACHN = tested on: ACHN
CAKI-1 = tested on: CAKI-1
CCRF-CEM = tested on: CCRF-CEM
COLO 205 = tested on: COLO 205
DMS-114 = tested on: DMS-114
DMS-273 = tested on: DMS-273
EKVX = tested on: EKVX
HCC 2998 = tested on: HCC 2998
HCT-116 = tested on: HCT-116
HCT-15 = tested on: HCT-15
HL-60 = tested on: HL-60
HOP-18 = tested on: HOP-18
HOP-62 = tested on: HOP-62
HOP-92 = tested on: HOP-92
HT-29 = tested on: HT-29
IGROV-1 = tested on: IGROV-1
K562 = tested on: K562
KM-20L2 = tested on: KM-20L2
KM12 = tested on: KM12
LXFL 529 = tested on: LXFL 529
M14 = tested on: M14
M19-MEL = tested on: M19-MEL
MOLT-4 = tested on: MOLT-4
Malme-3M = tested on: Malme-3M
NCI-H23 = tested on: NCI-H23
NCI-H460 = tested on: NCI-H460
NCI-H522 = tested on: NCI-H522
OVCAR-3 = tested on: OVCAR-3
OVCAR-4 = tested on: OVCAR-4
OVCAR-5 = tested on: OVCAR-5
OVCAR-8 = tested on: OVCAR-8
RPMI-8226 = tested on: RPMI-8226
RXF 393 = tested on: RXF 393
SF-268 = tested on: SF-268
SF-295 = tested on: SF-295
SF-539 = tested on: SF-539
SK-MEL-28 = tested on: SK-MEL-28
SK-MEL-2 = tested on: SK-MEL-2
SK-MEL-5 = tested on: SK-MEL-5
SK-OV-3 = tested on: SK-OV-3
SN12C = tested on: SN12C
SNB-19 = tested on: SNB-19
SNB-75 = tested on: SNB-75
SNB-78 = tested on: SNB-78
SW-620 = tested on: SW-620
TK-10 = tested on: TK-10
U-251 = tested on: U-251
UACC-257 = tested on: UACC-257
UACC-62 = tested on: UACC-62
XF498 = tested on: XF498
DLD-1 = tested on: DLD-1
LOX IMVI = tested on: LOX IMVI
NCI-H226 = tested on: NCI-H226
UO-31 = tested on: UO-31
MCF7 = tested on: MCF7
NCI/ADR-RES = tested on: NCI/ADR-RES

O=C(Sc1sc(=S)sc1SC(=O)c1ccccc1)c1ccccc1 was tested, and the GI50 (786-0) was > 100 µM (inactive), the GI50 (A498) was 31.5 µM (inactive) and the GI50 (A549) was 27.6 µM (inactive). For the same molecule, the GI50 (ACHN) was > 100 µM (inactive), the GI50 (CAKI-1) was > 100 µM (inactive) and the GI50 (CCRF-CEM) was > 100 µM (inactive). The GI50 (COLO 205) was > 100 µM (inactive), the GI50 (DMS-114) was > 100 µM (inactive) and the GI50 (DMS-273) was 53 µM (inactive). For the same molecule, the GI50 (EKVX) was 53.8 µM (inactive), the GI50 (HCC 2998) was 34.2 µM (inactive) and the GI50 (HCT-116) was 71.1 µM (inactive). The GI50 (HCT-15) was over 100 µM, the GI50 (HL-60) was > 100 µM (inactive) and the GI50 (HOP-18) was > 100 µM (inactive). For the same molecule, the GI50 (HOP-62) was 25.4 µM (inactive), the GI50 (HOP-92) was 50.6 µM (inactive) and the GI50 (HT-29) was 36.6 µM (inactive). For the same molecule, the GI50 (IGROV-1) was 43.2 µM (inactive), the GI50 (K562) was > 100 µM (inactive) and the GI50 (KM-20L2) was 48.2 µM (inactive). For the same molecule, the GI50 (KM12) was 37.4 µM (inactive), the GI50 (LXFL 529) was > 100 µM (inactive) and the GI50 (M14) was 68.9 µM (inactive). The GI50 (M19-MEL) was 21.7 µM (inactive), the GI50 (MOLT-4) was > 100 µM (inactive) and the GI50 (Malme-3M) was 78.3 µM (inactive). The GI50 (NCI-H23) was > 100 µM (inactive), the GI50 (NCI-H460) was > 10 µM (inactive) and the GI50 (NCI-H522) was > 100 µM (inactive). The GI50 (OVCAR-3) was > 100 µM (inactive), the GI50 (OVCAR-4) was > 100 µM (inactive) and the GI50 (OVCAR-5) was 33.1 µM (inactive). The GI50 (OVCAR-8) was 83.4 µM (inactive), the GI50 (RPMI-8226) was > 100 µM (inactive) and the GI50 (RXF 393) was > 100 µM (inactive). The GI50 (SF-268) was 62.1 µM (inactive), the GI50 (SF-295) was 33.7 µM (inactive) and the GI50 (SF-539) was 46.2 µM (inactive). For the same molecule, the GI50 (SK-MEL-28) was > 100 µM (inactive), the GI50 (SK-MEL-2) was 41.4 µM (inactive) and the GI50 (SK-MEL-5) was > 100 µM (inactive). The GI50 (SK-OV-3) was 22.9 µM (inactive), the GI50 (SN12C) was 93.5 µM (inactive) and the GI50 (SNB-19) was 37.1 µM (inactive). The GI50 (SNB-75) was 30.3 µM (inactive), the GI50 (SNB-78) was > 100 µM (inactive) and the GI50 (SW-620) was > 100 µM (inactive). For the same molecule, the GI50 (TK-10) was > 100 µM (inactive), the GI50 (U-251) was 28.8 µM (inactive) and the GI50 (UACC-257) was > 100 µM (inactive). The GI50 (UACC-62) was 21.9 µM (inactive) and the GI50 (XF498) was 55.2 µM (inactive).
For CC(=O)CC(=O)CCC(=O)Nc1cccc(C(F)(F)F)c1, the GI50 (786-0) was > 100 µM (inactive), the GI50 (A498) was > 100 µM (inactive) and the GI50 (A549) was > 100 µM (inactive). The GI50 (ACHN) was > 100 µM (inactive), the GI50 (CAKI-1) was > 100 µM (inactive) and the GI50 (CCRF-CEM) was > 100 µM (inactive). For the same molecule, the GI50 (COLO 205) was > 100 µM (inactive), the GI50 (DLD-1) was > 100 µM (inactive) and the GI50 (DMS-114) was > 100 µM (inactive). For the same molecule, the GI50 (DMS-273) was > 100 µM (inactive), the GI50 (EKVX) was > 100 µM (inactive) and the GI50 (HCC 2998) was > 100 µM (inactive). The GI50 (HCT-116) was > 100 µM (inactive), the GI50 (HCT-15) was over 100 µM and the GI50 (HL-60) was > 100 µM (inactive). The GI50 (HOP-18) was > 100 µM (inactive), the GI50 (HOP-62) was > 100 µM (inactive) and the GI50 (HOP-92) was > 100 µM (inactive). The GI50 (HT-29) was > 100 µM (inactive), the GI50 (IGROV-1) was > 100 µM (inactive) and the GI50 (K562) was > 100 µM (inactive). For the same molecule, the GI50 (KM-20L2) was > 100 µM (inactive), the GI50 (KM12) was > 100 µM (inactive) and the GI50 (LOX IMVI) was > 100 µM (inactive). For the same molecule, the GI50 (LXFL 529) was > 100 µM (inactive), the GI50 (M14) was > 100 µM (inactive) and the GI50 (MOLT-4) was > 100 µM (inactive). For the same molecule, the GI50 (Malme-3M) was > 100 µM (inactive), the GI50 (NCI-H226) was > 100 µM (inactive) and the GI50 (NCI-H23) was > 100 µM (inactive). For the same molecule, the GI50 (NCI-H460) was > 100 µM (inactive), the GI50 (NCI-H522) was > 100 µM (inactive) and the GI50 (OVCAR-3) was > 100 µM (inactive). The GI50 (OVCAR-4) was > 100 µM (inactive), the GI50 (OVCAR-5) was > 100 µM (inactive) and the GI50 (OVCAR-8) was > 100 µM (inactive). The GI50 (RPMI-8226) was > 100 µM (inactive), the GI50 (SF-268) was > 100 µM (inactive) and the GI50 (SF-295) was > 100 µM (inactive). The GI50 (SF-539) was > 100 µM (inactive), the GI50 (SK-MEL-2) was > 100 µM (inactive) and the GI50 (SK-MEL-5) was > 100 µM (inactive). The GI50 (SK-OV-3) was > 100 µM (inactive), the GI50 (SN12C) was > 100 µM (inactive) and the GI50 (SNB-19) was > 100 µM (inactive). The GI50 (SNB-78) was > 100 µM (inactive), the GI50 (SW-620) was > 100 µM (inactive) and the GI50 (TK-10) was > 100 µM (inactive). For the same molecule, the GI50 (U-251) was > 100 µM (inactive), the GI50 (UACC-257) was > 100 µM (inactive) and the GI50 (UACC-62) was > 100 µM (inactive). The GI50 (UO-31) was > 100 µM (inactive) and the GI50 (XF498) was > 100 µM (inactive).
With Cc1ccc(OP2(=O)Oc3ccc4ccccc4c3CN2c2ccc(Cl)cc2)cc1C (stereo not given) the GI50 (A498) was > 100 µM (inactive), the GI50 (A549) was > 100 µM (inactive) and the GI50 (CAKI-1) was > 100 µM (inactive). For the same molecule, the GI50 (CCRF-CEM) was > 100 µM (inactive), the GI50 (COLO 205) was > 100 µM (inactive) and the GI50 (DLD-1) was > 100 µM (inactive). For the same molecule, the GI50 (DMS-114) was > 100 µM (inactive), the GI50 (DMS-273) was > 100 µM (inactive) and the GI50 (EKVX) was > 100 µM (inactive). For the same molecule, the GI50 (HCC 2998) was > 100 µM (inactive), the GI50 (HCT-116) was > 100 µM (inactive) and the GI50 (HCT-15) was over 100 µM. For the same molecule, the GI50 (HL-60) was > 100 µM (inactive), the GI50 (HOP-18) was > 100 µM (inactive) and the GI50 (HOP-62) was > 100 µM (inactive). For the same molecule, the GI50 (HOP-92) was > 100 µM (inactive), the GI50 (HT-29) was > 100 µM (inactive) and the GI50 (IGROV-1) was > 100 µM (inactive). The GI50 (K562) was > 100 µM (inactive), the GI50 (KM-20L2) was > 100 µM (inactive) and the GI50 (KM12) was > 100 µM (inactive). The GI50 (LOX IMVI) was > 100 µM (inactive), the GI50 (M19-MEL) was > 100 µM (inactive) and the GI50 (MCF7) was > 100 µM (inactive). The GI50 (MOLT-4) was > 100 µM (inactive), the GI50 (Malme-3M) was > 100 µM (inactive) and the GI50 (NCI-H226) was > 100 µM (inactive). For the same molecule, the GI50 (NCI-H23) was > 100 µM (inactive), the GI50 (NCI-H460) was > 100 µM (inactive) and the GI50 (NCI-H522) was > 100 µM (inactive). For the same molecule, the GI50 (NCI/ADR-RES) was > 100 µM (inactive), the GI50 (OVCAR-3) was > 100 µM (inactive) and the GI50 (OVCAR-4) was > 100 µM (inactive). The GI50 (OVCAR-5) was > 100 µM (inactive), the GI50 (OVCAR-8) was > 100 µM (inactive) and the GI50 (RPMI-8226) was > 100 µM (inactive). The GI50 (RXF 393) was > 100 µM (inactive), the GI50 (SF-268) was > 100 µM (inactive) and the GI50 (SF-295) was > 100 µM (inactive). The GI50 (SF-539) was > 100 µM (inactive), the GI50 (SK-MEL-28) was > 100 µM (inactive) and the GI50 (SK-MEL-2) was > 100 µM (inactive). The GI50 (SK-MEL-5) was > 100 µM (inactive), the GI50 (SK-OV-3) was > 100 µM (inactive) and the GI50 (SN12C) was > 100 µM (inactive). For the same molecule, the GI50 (SNB-19) was > 100 µM (inactive), the GI50 (SNB-75) was > 100 µM (inactive) and the GI50 (SNB-78) was > 100 µM (inactive). For the same molecule, the GI50 (SW-620) was > 100 µM (inactive), the GI50 (U-251) was > 100 µM (inactive) and the GI50 (UACC-257) was > 100 µM (inactive). The GI50 (UACC-62) was > 100 µM (inactive), the GI50 (UO-31) was > 100 µM (inactive) and the GI50 (XF498) was > 100 µM (inactive).
